According to patent US11878970B2, “Allosteric chromenone inhibitors of phosphoinositide 3-kinase (PI3K) for the treatment of disease” (Petra Pharma Corporation, priority 2021, dated 2024):

Assays:
[1] = target: T1, PI3K-α (PIK3CA) H1047R mutant, p110α/p85α complex (Homo sapiens, UniProt P42336, H1047R); test: PI3K-alpha kinase (PIK3CA) biochemical activity, ADP-Glo, H1047R mutant; settings: Soy PI lipid substrate
T1 construct: Recombinant, catalytically active human full length PIK3KA Wild-type and H1047R mutant; 6×His (N); purchased EMD Millipore Sigma 14-792M
T1 sequence (P42336 whole entry H1047R): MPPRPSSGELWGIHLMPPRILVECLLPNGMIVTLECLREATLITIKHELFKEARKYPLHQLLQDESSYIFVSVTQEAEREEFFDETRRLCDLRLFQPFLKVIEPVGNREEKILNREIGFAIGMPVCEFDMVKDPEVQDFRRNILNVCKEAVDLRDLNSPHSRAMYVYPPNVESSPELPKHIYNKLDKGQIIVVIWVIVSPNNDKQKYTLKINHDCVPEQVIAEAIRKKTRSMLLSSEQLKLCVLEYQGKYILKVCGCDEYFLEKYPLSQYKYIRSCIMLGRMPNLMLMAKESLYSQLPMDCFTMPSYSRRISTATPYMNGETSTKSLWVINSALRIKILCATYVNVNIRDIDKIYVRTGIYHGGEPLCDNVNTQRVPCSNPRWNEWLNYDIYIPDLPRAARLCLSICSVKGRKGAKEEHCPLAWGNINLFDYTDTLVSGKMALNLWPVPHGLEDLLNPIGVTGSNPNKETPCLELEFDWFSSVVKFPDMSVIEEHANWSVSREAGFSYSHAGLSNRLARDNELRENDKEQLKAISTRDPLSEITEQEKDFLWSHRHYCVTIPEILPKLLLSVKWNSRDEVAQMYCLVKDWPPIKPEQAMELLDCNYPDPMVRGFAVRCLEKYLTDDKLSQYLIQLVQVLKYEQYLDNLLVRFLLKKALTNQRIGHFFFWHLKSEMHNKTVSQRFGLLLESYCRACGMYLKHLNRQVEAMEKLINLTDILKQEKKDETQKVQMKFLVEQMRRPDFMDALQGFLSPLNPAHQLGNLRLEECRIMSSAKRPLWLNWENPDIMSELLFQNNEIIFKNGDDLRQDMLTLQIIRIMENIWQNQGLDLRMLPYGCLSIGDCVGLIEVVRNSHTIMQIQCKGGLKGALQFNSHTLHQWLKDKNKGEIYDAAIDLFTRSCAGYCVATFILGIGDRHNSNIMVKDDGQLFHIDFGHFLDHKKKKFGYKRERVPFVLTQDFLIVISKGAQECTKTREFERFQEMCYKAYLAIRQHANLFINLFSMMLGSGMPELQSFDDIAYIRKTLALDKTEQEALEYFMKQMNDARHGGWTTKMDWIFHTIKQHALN
T1 sequence (P27986 whole entry partner): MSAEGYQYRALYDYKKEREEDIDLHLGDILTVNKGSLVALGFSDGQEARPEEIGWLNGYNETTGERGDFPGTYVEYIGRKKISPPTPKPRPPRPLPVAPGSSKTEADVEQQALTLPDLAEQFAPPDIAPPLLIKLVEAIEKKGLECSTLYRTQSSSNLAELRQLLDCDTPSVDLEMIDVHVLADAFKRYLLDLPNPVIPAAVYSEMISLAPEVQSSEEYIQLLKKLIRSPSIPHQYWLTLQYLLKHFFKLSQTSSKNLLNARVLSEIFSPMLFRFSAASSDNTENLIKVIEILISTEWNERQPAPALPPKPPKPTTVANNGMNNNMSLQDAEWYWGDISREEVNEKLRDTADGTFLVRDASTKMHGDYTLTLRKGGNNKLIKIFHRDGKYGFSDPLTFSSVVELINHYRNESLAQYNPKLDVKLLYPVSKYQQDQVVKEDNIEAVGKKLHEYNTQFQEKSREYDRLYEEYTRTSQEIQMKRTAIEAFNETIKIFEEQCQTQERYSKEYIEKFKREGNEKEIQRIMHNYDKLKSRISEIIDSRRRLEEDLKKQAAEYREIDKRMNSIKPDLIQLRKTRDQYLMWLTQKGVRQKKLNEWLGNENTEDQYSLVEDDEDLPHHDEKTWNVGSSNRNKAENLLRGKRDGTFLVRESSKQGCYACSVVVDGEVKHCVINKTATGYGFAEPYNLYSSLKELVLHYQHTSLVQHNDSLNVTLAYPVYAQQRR
From the text: (§1) PI3K-Alpha Kinase (PIK3CA) Activity, Wild-Type and H1047R Mutant and Determining IC50 Values for Inhibitors
(§2) Recombinant, catalytically active human full length PIK3KA Wild-type and H1047R mutant were purchased as 1:1 complex of N-terminal 6×his tagged p110α (catalytic) and untagged p85α (regulatory subunit) from EMD Millipore Sigma (cat. no. 14-602M and 14-792M, respectively). PIP2diC8 (Avanti Polar Lipids Inc., cat. no. 850185) or Soy PI (Avanti Polar Lipids Inc., cat. No. 840044P) was used as lipid substrate. PIP2diC8 or PI lyophilized powder was dissolved in milliQ water to a concentration of 1 mM just before use. 10 mM stock compounds in DMSO were serially diluted 1:3 to generate a 10-point curve and plated using an acoustic liquid handler system (Echo 550 series instrument, Labcyte). A 10× intermediate compound plate (200 uM starting compound concentration and 10% DMSO) was prepared before starting the reaction. A typical reaction mixture (50 uL) comprised 40 mM HEPES buffer, pH 7.4, 25 mM MgCl2, 0.01% v/v triton-X-100, 1% v/v DMSO, 20 mM NaCl, 1-5 nM WT or H1047R PI3K protein, 20 uM ATP, and 50 uM PIP2diC8 or Soy PI. 1% DMSO buffer alone without test compound was employed as MAX control (full activity in the absence of any inhibitor), and no enzyme control was used to determine the level of background Adenosine 5′-diphosphate (ADP) (MIN control). First, Wild-type (WT) and H1047R mutant protein in kinase buffer with all components except ATP were incubated with or without compound at 27° C. for 1 h. After the pre-incubation, the reaction was initiated by the addition of 20 uL of 50 uM ATP (20 uM final concentration). The reaction was allowed to proceed until about 10% conversion of ATP (2 uM ADP) at 27° C. After that time, 5 uL of reaction was mixed with 5 uL of ADP-Kinase Glo Reagent (ADP-Glo Kinase assay kit, Promega cat. no. V9102) supplemented with MgCl2 10 mM to stop the reaction and deplete the remaining ATP for 40 min at room temperature. Then, 10 uL of Kinase Detection Reagent (ADP-Glo Kinase assay kit, Promega cat. no. V9102) was added to simultaneously convert ADP to ATP and allow the newly synthesized ATP to be measured using a luciferase/luciferin reaction. After 30 min at room temperature the light generated was measured using a luminometer (EnVision plate reader, Perkin Elmer). Process data through Genedata-Screener tool. Relative IC50 values are determined using luminescence units by calculating percent inhibition with respect to on-plate “MIN” and “MAX” controls. Data was analyzed using a 4-parameter nonlinear logistic equation (four-parameter logistic concentration-response curve): Y=bot+[(top−bot)/1+(x/IC50)slope] where Y=% inhibition, X=concentration yielding y % inhibition, Bottom=minimum value of y attained by curve, Top=maximum value of y attained by curve and Slope=steepness of curve at IC50. % Inh=[(median Max−x/median Max−median Min)]·100 IC50: concentration of compound that reduces a given response (ligand binding, enzyme response) by 50%. IC50 relative: concentration giving half the compound's maximum response.

[2] = target: T2, PI3K-α (PIK3CA) wild-type (WT), p110α/p85α complex (Homo sapiens, UniProt P42336); test: PI3K-alpha kinase (PIK3CA) biochemical activity, ADP-Glo, wild-type; settings: Soy PI lipid substrate
T2 construct: Recombinant, catalytically active human full length PIK3KA Wild-type and H1047R mutant; 6×His (N); purchased EMD Millipore Sigma 14-602M
From the text: as §1, §2

SMILES	IC50 [1]	IC50 [2]
Cc1cc(C(C)Nc2ccccc2C(=O)O)c2oc(-c3cnc4sc(C)nc4c3)cc(=O)c2c1 (single isomer, unassigned) [Example 81, 2-[1-[6-Methyl-2-(2-methylthiazolo[5,4-b]pyridin-6-yl)-4-oxo-chromen-8-yl]ethylamino]benzoic acid]	< 0.5 µM	1 to 5 µM
Cc1cc(C(C)Nc2ccc(Cl)nc2C(=O)O)c2oc(-c3ccc4nn(C)cc4c3)cc(=O)c2c1 (single isomer, unassigned) [Example 83, 6-Chloro-3-[1-[6-methyl-2-(2-methylindazol-5-yl)-4-oxo-chromen-8-yl]ethylamino]pyridine-2-carboxylic acid]	< 0.5 µM	0.5 to 1 µM
Cc1cc(C(C)Nc2ccccc2C(=O)O)c2oc(-n3ncc4cc(F)ccc43)cc(=O)c2c1 (single isomer, unassigned) [Example 89, 2-[1-[2-(5-Fluoroindazol-1-yl)-6-methyl-4-oxo-chromen-8-yl]ethylamino]benzoic acid]	< 0.5 µM	1 to 5 µM
Cc1cc(C(C)Nc2ccccc2C(=O)O)c2oc(-c3cccc4c3OCO4)c(C)c(=O)c2c1 (single isomer, unassigned) [Example 92, 2-[1-[2-(1,3-Benzodioxol-4-yl)-3,6-dimethyl-4-oxo-chromen-8-yl]ethylamino]benzoic acid]	< 0.5 µM	1 to 5 µM
Cc1cc(C(C)Nc2ccccc2C(=O)O)c2oc(-c3nccc4cnn(C)c34)cc(=O)c2c1 (single isomer, unassigned) [Example 96, 2-[1-[6-Methyl-2-(1-methylpyrazolo[3,4-c]pyridin-7-yl)-4-oxo-chromen-8-yl]ethylamino]benzoic acid]	1 to 5 µM	5 to 10 µM
Cc1cc(C(C)Nc2ccccc2C(=O)O)c2oc(-c3ccc4c(C#N)nn(C)c4c3)cc(=O)c2c1 (single isomer, unassigned) [Example 104, 2-[1-[2-(3-Cyano-1-methyl-indazol-6-yl)-6-methyl-4-oxo-chromen-8-yl]ethylamino]benzoic acid]	< 0.5 µM	1 to 5 µM
Cc1cc(C(C)Nc2ccccc2C(=O)O)c2oc(-c3nccn4cccc34)cc(=O)c2c1 (single isomer, unassigned) [Example 105, 2-[1-(6-Methyl-4-oxo-2-pyrrolo[1,2-a]pyrazin-1-yl-chromen-8-yl)ethylamino]benzoic acid]	< 0.5 µM	5 to 10 µM
Cc1cc(C(C)Nc2ccccc2C(=O)O)c2oc(-c3cccn4nccc34)cc(=O)c2c1 (single isomer, unassigned) [Example 106, 2-[1-(6-Methyl-4-oxo-2-pyrazolo[1,5-a]pyridin-4-yl-chromen-8-yl)ethylamino]benzoic acid]	< 0.5 µM	< 0.5 µM
Cc1cc(C(C)Nc2ccccc2C(=O)O)c2oc(-c3ccn4c(-c5cccnc5)c(C)nc4c3)cc(=O)c2c1 (single isomer, unassigned) [Example 112, 2-[1-[6-Methyl-2-[2-methyl-3-(3-pyridyl)imidazo[1,2-a]pyridin-7-yl]-4-oxo-chromen-8-yl]ethylamino]benzoic acid]	0.5 to 1 µM	1 to 5 µM
Cc1cc(C(C)Nc2ccccc2C(=O)O)c2oc(-c3ccc4cncnc4c3)cc(=O)c2c1 (single isomer, unassigned) [Example 114, 2-[1-(6-Methyl-4-oxo-2-quinazolin-7-yl-chromen-8-yl)ethylamino]benzoic acid]	> 10 µM	> 10 µM
Cc1cc(C(C)Nc2ccccc2C(=O)O)c2oc(-c3ccc4nc(C)cn4c3)c(C#N)c(=O)c2c1 (single isomer, unassigned) [Example 118, 2-[1-[3-Cyano-6-methyl-2-(2-methylimidazo[1,2-a]pyridin-6-yl)-4-oxo-chromen-8-yl]ethylamino]benzoic acid]	< 0.5 µM	1 to 5 µM
Cc1cc(C(C)Nc2ccccc2C(=O)O)c2oc(-c3c4ccccc4nn3C)cc(=O)c2c1 (single isomer, unassigned) [Example 119, 2-[1-[6-Methyl-2-(2-methylindazol-3-yl)-4-oxo-chromen-8-yl]ethylamino]benzoic acid]	1 to 5 µM	1 to 5 µM

The remaining lines, values ahead:

IC50 [1]	IC50 [2]	SMILES
< 0.5 µM	5 to 10 µM	Cc1cc(C(C)Nc2ccccc2C(=O)O)c2oc(-n3cnc4ccccc43)cc(=O)c2c1 (single isomer, unassigned) [Example 84, 2-[1-[2-(Benzimidazol-1-yl)-6-methyl-4-oxo-chromen-8-yl]ethylamino]benzoic acid]
< 0.5 µM	1 to 5 µM	Cc1cc(C(C)Nc2ccccc2C(=O)O)c2oc(-n3nnc4ccccc43)cc(=O)c2c1 (single isomer, unassigned) [Example 85, 2-[1-[2-(Benzotriazol-1-yl)-6-methyl-4-oxo-chromen-8-yl]ethylamino]benzoic acid]
< 0.5 µM	1 to 5 µM	Cc1ccc2c(cnn2-c2cc(=O)c3cc(C)cc(C(C)Nc4ccccc4C(=O)O)c3o2)c1 (single isomer, unassigned) [Example 87, 2-[1-[6-Methyl-2-(5-methylindazol-1-yl)-4-oxo-chromen-8-yl]ethylamino]benzoic acid]
5 to 10 µM	5 to 10 µM	Cc1cc(C(C)Nc2ccccc2C(=O)O)c2oc(-c3nccc4cn(C)nc34)cc(=O)c2c1 (single isomer, unassigned) [Example 98, 2-[1-[6-Methyl-2-(2-methylpyrazolo[3,4-c]pyridin-7-yl)-4-oxo-chromen-8-yl]ethylamino]benzoic acid]
< 0.5 µM	> 10 µM	CC(Nc1ccc(Cl)nc1C(=O)O)c1cc(C(F)(F)F)cc2c(=O)cc(-c3cc4ccccc4[nH]3)oc12 (single isomer, unassigned) [Example 100, 6-Chloro-3-[1-[2-(1H-indol-2-yl)-4-oxo-6-(trifluoromethyl)chromen-8-yl]ethylamino]pyridine-2-carboxylic acid]
< 0.5 µM	1 to 5 µM	Cc1cn2nc(-c3cc(=O)c4cc(C(F)(F)F)cc(C(C)Nc5ccccc5C(=O)O)c4o3)ccc2n1 (single isomer, unassigned) [Example 101, 2-[1-[2-(2-Methylimidazo[1,2-b]pyridazin-6-yl)-4-oxo-6-(trifluoromethyl)chromen-8-yl]ethylamino]benzoic acid]
< 0.5 µM	1 to 5 µM	Cc1cn2nc(-c3cc(=O)c4cc(C(F)(F)F)cc(C(C)Nc5ccc(Cl)nc5C(=O)O)c4o3)ccc2n1 (single isomer, unassigned) [Example 102, 6-Chloro-3-[1-[2-(2-methylimidazo[1,2-b]pyridazin-6-yl)-4-oxo-6-(trifluoromethyl)chromen-8-yl]ethylamino]pyridine-2-carboxylic acid]
0.5 to 1 µM	1 to 5 µM	Cc1cc(C(C)Nc2ccccc2C(=O)O)c2oc(-c3ccc4nc(C)cn4n3)cc(=O)c2c1 (single isomer, unassigned) [Example 107, 2-[1-[6-Methyl-2-(2-methylimidazo[1,2-b]pyridazin-6-yl)-4-oxo-chromen-8-yl]ethylamino]benzoic acid]
< 0.5 µM	1 to 5 µM	Cc1cc(C(C)Nc2ccccc2C(=O)O)c2oc(-c3ccc4cn[nH]c4n3)cc(=O)c2c1 (single isomer, unassigned) [Example 121, 2-[1-[6-Methyl-4-oxo-2-(1H-pyrazolo[3,4-b]pyridin-6-yl)chromen-8-yl]ethylamino]benzoic acid]
